Data reported in patent publication US6420330B1, “Use of quaternary carboxylic acid alkanolamine ester salts as microbicide agents” (Cognis Deutschland GmbH, priority 1997, dated 2002).

What was measured:
Assay in all cases: DGHM suspension test, microbicidal activity
Format in all cases: cell-based
[1] = tested on: Pseudomonas aeruginosa ATCC 15442
Procedure: (§1) The microbicidal activity of the quanterary carboxylic acid alkanolamine ester salts used in accordance with the invention was tested against the following selected test germs:
(§2) The effectiveness of the compound to be tested was determined by the suspension test in accordance with the guidelines of the Deutsche Gesellschaft for Hygiene and Mikrobiologie (DGHM). Test solutions containing quatemary carboxylic acid alkanolamine ester salts in the quantities shown in the Tables of 50, 100, 200, 400 and 800 mg/l were prepared using water with a hardness of 17° dH and optionally isopropanol.
(§3) At room temperatures, quantities of 0.1 ml test germ suspension were pipetted into test tubes containing 10 ml of the test solutions described above and mixed. After various contact times of 5, 15, 30 and 60 minutes, 1 ml of material was taken from the test tubes by pipette and transferred to 9 ml inactivator solution (inactivators: 3.0% Tween, 0.3% lecithin, 0.1% histidine). After in activation for at least 5 and at most 30 minutes, the living germ count was determined by plating out onto casein peptone-soybean flour peptone (CaSo)-agar plates. Using a spiral plater, the inactivating mixture was directly plated out onto CaSo-agar. The samples were incubated for 24 to 72 hours at 37° C. and macroscopically evaluated for growth. The destruction time or the residual germ count was determined in this way. The germ count of an unchallenged water control is related to the germ count of the inactivated test solution taking the dilution into account. The higher the value, the better the microbicidal effect. The symbol < means that the logarithmic reductuon factor is below the indicated value or, in the case of the symbol >, above the indicated value. The abbreviation CU stands for “concentration used”.

[2] = tested on: Candida albicans ATCC 10231
Procedure: as §1, §2, §3

[3] = tested on: Staphylococcus aureus ATCC 6538
Procedure: as §1, §2, §3

[4] = CU 50 mg/l, contact time 5 mins.
[5] = CU 50 mg/l, contact time 15 mins.
[6] = CU 50 mg/l, contact time 30 mins.
[7] = CU 50 mg/l, contact time 60 mins.
[8] = CU 100 mg/l, contact time 5 mins.
[9] = CU 100 mg/l, contact time 15 mins.
[10] = CU 100 mg/l, contact time 30 mins.
[11] = CU 100 mg/l, contact time 60 mins.
[12] = CU 200 mg/l, contact time 5 mins.
[13] = CU 200 mg/l, contact time 15 mins.
[14] = CU 200 mg/l, contact time 30 mins.
[15] = CU 200 mg/l, contact time 60 mins.
[16] = CU 400 mg/l, contact time 5 mins.
[17] = CU 400 mg/l, contact time 15 mins.
[18] = CU 400 mg/l, contact time 30 mins.
[19] = CU 400 mg/l, contact time 60 mins.
[20] = CU 800 mg/l, contact time 5 mins.
[21] = CU 800 mg/l, contact time 15 mins.
[22] = CU 800 mg/l, contact time 30 mins.
[23] = CU 800 mg/l, contact time 60 mins.

## CCCCCCCC(=O)OCC[N+](C)(C)CCOC(=O)CCCCCCC.COS(=O)(=O)[O-] [Example 1, dimethyl diethanolammonium dicaprylic acid ester methosulfate]
[1]; [4]
  logarithmic reduction factor: <1.83
[1]; [5]
  logarithmic reduction factor: <1.47
[1]; [6]
  logarithmic reduction factor: <1.55
[1]; [7]
  logarithmic reduction factor: <1.56
[1]; [8]
  logarithmic reduction factor: <1.83
[1]; [9]
  logarithmic reduction factor: <1.47
[1]; [10]
  logarithmic reduction factor: <1.55
[1]; [11]
  logarithmic reduction factor: <1.56
[1]; [12]
  logarithmic reduction factor: <1.83
[1]; [13]
  logarithmic reduction factor: <1.47
[1]; [14]
  logarithmic reduction factor: <1.55
[1]; [15]
  logarithmic reduction factor: <1.56
[1]; [16]
  logarithmic reduction factor: <1.83
[1]; [17]
  logarithmic reduction factor: <1.47
[1]; [18]
  logarithmic reduction factor: 3.22
[1]; [19]
  logarithmic reduction factor: 4.41
[1]; [20]
  logarithmic reduction factor: >5.83
[1]; [21]
  logarithmic reduction factor: >5.47
[1]; [22]
  logarithmic reduction factor: >5.55
[1]; [23]
  logarithmic reduction factor: >5.56
[2]; [4]
  logarithmic reduction factor: <0.50
[2]; [5]
  logarithmic reduction factor: <0.37
[2]; [6]
  logarithmic reduction factor: <0.35
[2]; [7]
  logarithmic reduction factor: <0.36
[2]; [8]
  logarithmic reduction factor: <0.50
[2]; [9]
  logarithmic reduction factor: 0.41
[2]; [10]
  logarithmic reduction factor: 0.60
[2]; [11]
  logarithmic reduction factor: 0.70
[2]; [12]
  logarithmic reduction factor: 1.53
[2]; [13]
  logarithmic reduction factor: 2.53
[2]; [14]
  logarithmic reduction factor: 2.91
[2]; [15]
  logarithmic reduction factor: 3.61
[2]; [16]
  logarithmic reduction factor: >4.5
[2]; [17]
  logarithmic reduction factor: >4.37
[2]; [18]
  logarithmic reduction factor: >4.35
[2]; [19]
  logarithmic reduction factor: >4.36
[2]; [20]
  logarithmic reduction factor: >4.50
[2]; [21]
  logarithmic reduction factor: >4.37
[2]; [22]
  logarithmic reduction factor: >4.35
[2]; [23]
  logarithmic reduction factor: >4.36
[3]; [4]
  logarithmic reduction factor: <1.32
[3]; [5]
  logarithmic reduction factor: <1.71
[3]; [6]
  logarithmic reduction factor: <1.23
[3]; [7]
  logarithmic reduction factor: <1.32
[3]; [8]
  logarithmic reduction factor: <1.32
[3]; [9]
  logarithmic reduction factor: <1.71
[3]; [10]
  logarithmic reduction factor: <1.23
[3]; [11]
  logarithmic reduction factor: <1.32
[3]; [12]
  logarithmic reduction factor: <1.32
[3]; [13]
  logarithmic reduction factor: <1.71
[3]; [14]
  logarithmic reduction factor: <1.23
[3]; [15]
  logarithmic reduction factor: <1.32
[3]; [16]
  logarithmic reduction factor: <1.32
[3]; [17]
  logarithmic reduction factor: <1.1
[3]; [18]
  logarithmic reduction factor: 1.95
[3]; [19]
  logarithmic reduction factor: 3.54
[3]; [20]
  logarithmic reduction factor: <1.32
[3]; [21]
  logarithmic reduction factor: <3.59
[3]; [22]
  logarithmic reduction factor: <3.96
[3]; [23]
  logarithmic reduction factor: >5.32

## CCCCCCCCCCCC(=O)OCC[N+](C)(CCO)CCOC(=O)CCCCCCCCCCC.COS(=O)(=O)[O-] [Example 5, methyl triethanolammonium dilauric acid ester methosulfate]
[1]; [4]
  logarithmic reduction factor: <1.85
[1]; [5]
  logarithmic reduction factor: <1.79
[1]; [6]
  logarithmic reduction factor: <1.71
[1]; [7]
  logarithmic reduction factor: <1.51
[1]; [8]
  logarithmic reduction factor: <1.85
[1]; [9]
  logarithmic reduction factor: <1.79
[1]; [10]
  logarithmic reduction factor: <1.71
[1]; [11]
  logarithmic reduction factor: <1.81
[1]; [12]
  logarithmic reduction factor: <1.85
[1]; [13]
  logarithmic reduction factor: <1.79
[1]; [14]
  logarithmic reduction factor: <1.71
[1]; [15]
  logarithmic reduction factor: <1.81
[1]; [16]
  logarithmic reduction factor: <1.85
[1]; [17]
  logarithmic reduction factor: <1.79
[1]; [18]
  logarithmic reduction factor: <1.71
[1]; [19]
  logarithmic reduction factor: 3.84
[1]; [20]
  logarithmic reduction factor: <1.85
[1]; [21]
  logarithmic reduction factor: 3.43
[1]; [22]
  logarithmic reduction factor: 3.95
[1]; [23]
  logarithmic reduction factor: 4.40
[3]; [4]
  logarithmic reduction factor: <1.79
[3]; [5]
  logarithmic reduction factor: <1.73
[3]; [6]
  logarithmic reduction factor: 2.53
[3]; [7]
  logarithmic reduction factor: 3.88
[3]; [8]
  logarithmic reduction factor: <1.79
[3]; [9]
  logarithmic reduction factor: 2.38
[3]; [10]
  logarithmic reduction factor: 3.80
[3]; [11]
  logarithmic reduction factor: 5.21
[3]; [12]
  logarithmic reduction factor: 2.52
[3]; [13]
  logarithmic reduction factor: 4.25
[3]; [14]
  logarithmic reduction factor: >5.75
[3]; [15]
  logarithmic reduction factor: >5.86
[3]; [16]
  logarithmic reduction factor: 2.70
[3]; [17]
  logarithmic reduction factor: >5.73
[3]; [18]
  logarithmic reduction factor: >5.75
[3]; [19]
  logarithmic reduction factor: >5.86
[3]; [20]
  logarithmic reduction factor: 3.85
[3]; [21]
  logarithmic reduction factor: >5.73
[3]; [22]
  logarithmic reduction factor: >5.75
[3]; [23]
  logarithmic reduction factor: >5.86

## CCCCCCCCCCCC(=O)OCC[N+](C)(C)CCOC(=O)CCCCCCCCCCC.COS(=O)(=O)[O-] [Example 8, dimethyl diethanolammonium dilauric acid ester methosulfate]
[1]; [4]
  logarithmic reduction factor: <1.88
[1]; [5]
  logarithmic reduction factor: <1.93
[1]; [6]
  logarithmic reduction factor: <1.80
[1]; [7]
  logarithmic reduction factor: <1.90
[1]; [8]
  logarithmic reduction factor: <1.88
[1]; [9]
  logarithmic reduction factor: <1.93
[1]; [10]
  logarithmic reduction factor: <1.80
[1]; [11]
  logarithmic reduction factor: 3.05
[1]; [12]
  logarithmic reduction factor: <1.88
[1]; [13]
  logarithmic reduction factor: <1.93
[1]; [14]
  logarithmic reduction factor: 3.05
[1]; [15]
  logarithmic reduction factor: 3.77
[3]; [4]
  logarithmic reduction factor: <1.39
[3]; [5]
  logarithmic reduction factor: 3.24
[3]; [6]
  logarithmic reduction factor: 4.28
[3]; [7]
  logarithmic reduction factor: 4.23
[3]; [8]
  logarithmic reduction factor: 1.98
[3]; [9]
  logarithmic reduction factor: 3.40
[3]; [10]
  logarithmic reduction factor: 5.29
[3]; [11]
  logarithmic reduction factor: >5.60
[3]; [12]
  logarithmic reduction factor: 2.34
[3]; [13]
  logarithmic reduction factor: 4.64
[3]; [14]
  logarithmic reduction factor: >5.51
[3]; [15]
  logarithmic reduction factor: >5.60

## CCCCCCCCCC(=O)OCC[N+](C)(CCOC(=O)CCCCCCCCC)CCOC(=O)CCCCCCCCC.COS(=O)(=O)[O-] [Example 9, methyl triethanolammonium tricapric acid ester methosulfate]
[1]; [8]
  logarithmic reduction factor: <1.88
[1]; [9]
  logarithmic reduction factor: <1.93
[1]; [10]
  logarithmic reduction factor: <1.80
[1]; [11]
  logarithmic reduction factor: <1.90
[1]; [12]
  logarithmic reduction factor: <1.88
[1]; [13]
  logarithmic reduction factor: <1.93
[1]; [14]
  logarithmic reduction factor: <1.80
[1]; [15]
  logarithmic reduction factor: 2.94
[1]; [16]
  logarithmic reduction factor: <1.88
[1]; [17]
  logarithmic reduction factor: <1.93
[1]; [18]
  logarithmic reduction factor: 3.27
[1]; [19]
  logarithmic reduction factor: 3.72
[3]; [4]
  logarithmic reduction factor: <1.39
[3]; [5]
  logarithmic reduction factor: <1.59
[3]; [6]
  logarithmic reduction factor: <1.51
[3]; [7]
  logarithmic reduction factor: <1.60
[3]; [8]
  logarithmic reduction factor: <1.39
[3]; [9]
  logarithmic reduction factor: <1.59
[3]; [10]
  logarithmic reduction factor: <1.51
[3]; [11]
  logarithmic reduction factor: 2.09
[3]; [12]
  logarithmic reduction factor: <1.39
[3]; [13]
  logarithmic reduction factor: <1.59
[3]; [14]
  logarithmic reduction factor: 1.83
[3]; [15]
  logarithmic reduction factor: 2.97
